Experimental findings from US10519140B2, “Indolin-2-one derivatives” (Hoffmann-La Roche Inc., priority 2015, dated 2019) are described below.

SMILES strings stand for the structures.

In experiment [1] the test system is L-687,414-induced hyperlocomotion. The experiment in a line: L-687,414-induced hyperlocomotion. The class given is in vivo. Conditions: Mus musculus; mice; dose 30 mg/kg ip, 15 min before 50 mg/kg s.c. L-687,414. The text has this: The authors described that hyperlocomotion induced by L-687,414 was inhibited by a series of known antipsychotic drugs. […] These findings predict antipsychotic activity for the present compounds, making them useful for the treatment of positive (psychosis) and negative symptoms of schizophrenia, substance abuse, alcohol and drug addiction, obsessive-compulsive disorders, cognitive impairment, bipolar disorders, mood disorders, major depression, resistant depression, anxiety disorders, Alzheimer's disease, autism, Parkinson's disease, chronic pain, borderline personality disorder, sleep disturbances, chronic fatigue syndrome, stiffness, antiinflammatory effects in arthritis and balance problems, and treatment of epilepsy and neurodevelopmental disorders with co-morbid epilepsy.
The described compounds of formula I reduce L-687,414-induced hyperlocomotion. This was assessed by using a computerized Digiscan 16 Animal Activity Monitoring System (Omnitech Electronics, Columbus, Ohio) to quantify locomotor activity. Animals were kept under a 12 h light/dark cycle and experiments were performed during the light period. Each activity monitoring chamber consisted of a Plexiglas box (41×41×28 cm; W×L×H) with sawdust bedding on the floor surrounded by invisible horizontal and vertical infrared sensor beams. The test boxes were divided by a Plexiglas cross providing each mouse with 20×20 cm of moving space. Cages were connected to a Digiscan Analyzer linked to a computer that constantly collected the beam status information. Records of photocell beam interruptions for individual animals were taken every 5 min over the duration of the experimental session and the sum of the first 6 periods was used as the final parameter. At least 8 mice were used in each treatment group. Compounds were administered i.p. 15 min before a s.c. injection of 50 mg/kg of L-687,414. Mice were then transferred from their home cage to the recording chambers for a 15-min habituation phase allowing free exploration of the new environment. Horizontal activity was then recorded for a 30-min time period. The % inhibition of L-687,414-induced hyperlocomotion was calculated according to the equation: ((Veh+L-687,414 horizontal activity−drug+L-687,414 horizontal activity)/Veh+L−687,414 horizontal activity)×100
ID50 values, defined as doses of each compound producing 50% inhibition of L-687,414-induced hyperlocomotion, were calculated by linear regression analysis of a dose-response data using an Excel-based computer-fitting program.
As data was not presupposed to be normally distributed, groups treated with test compounds were statistically compared with the control (vehicle-treated) group using one-tailed Mann Whitney U tests. In statistics, the Mann-Whitney Utest (also called the Mann-Whitney-Wilcoxon (MWW) or Wilcoxon rank-sum test) is a non-parametric statistical hypothesis test for assessing whether one of two samples of independent observations tends to have larger values than the other. It is one of the most well-known non-parametric significance tests. […] P values given in table 1 are one-tailed since only decreases in locomotion were expected and tested for (Mann, H. B., Whitney, D. R. (1947), “On a Test of Whether one of Two Random Variables is Stochastically Larger than the Other”, Annals of Mathematical Statistics, 18 (1), 50-60).

For experiment [2], the target named is T1, mouse ENT-1 transporter (Mus musculus, UniProt Q9JIM1).
T1 construct: expressed in transfected cells
T1 sequence (Q9JIM1 1-460): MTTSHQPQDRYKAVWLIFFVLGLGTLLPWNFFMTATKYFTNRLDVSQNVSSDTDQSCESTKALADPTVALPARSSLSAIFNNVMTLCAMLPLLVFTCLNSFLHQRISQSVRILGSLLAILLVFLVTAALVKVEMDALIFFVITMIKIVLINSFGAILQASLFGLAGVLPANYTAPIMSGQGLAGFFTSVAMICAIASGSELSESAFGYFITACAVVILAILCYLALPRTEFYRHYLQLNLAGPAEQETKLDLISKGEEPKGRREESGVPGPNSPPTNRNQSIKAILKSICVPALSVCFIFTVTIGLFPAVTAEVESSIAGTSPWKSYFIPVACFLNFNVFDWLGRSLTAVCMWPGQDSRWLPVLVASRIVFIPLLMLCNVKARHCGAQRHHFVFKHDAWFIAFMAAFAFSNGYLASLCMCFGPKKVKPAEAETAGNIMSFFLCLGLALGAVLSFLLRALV
The experiment in a line: Adenosine transport activity (ENT1, [3H]-adenosine uptake inhibition). The following applies: stable cells expressing mouse ENT-1; [2,8-3H]-adenosine 6 nM, 20 min. The class given is cell-based. Here is the method: To measure adenosine transport activity of ENT-1 mammalian cells, stable cells expressing the mouse ENT-1 transporter were plated on day 1 in 96-well culture plates at the density of 60,000 cells/well, in complete DMEM/F12 medium supplemented with glutamax, 10% FBS and 10 μg/ml puromycin. On day 2, the medium was aspirated and the cells were washed twice with uptake buffer (10 mM Hepes-Tris, pH 7.4 containing 150 mM NaCl, 1 mM CaCl2, 2.5 mM KCl, 2.5 mM MgSO4, 10 mM D-glucose) (UB). For inhibition experiments, cells were then incubated at RT with various concentrations of compounds with 1% DMSO final. Non-specific uptake was defined in the presence of 10 μM S-(4-Nitrobenzyl)-6-thioinosine (NBTI, Sigma Cat #N2255). A solution containing [2,8-^3H]-adenosine 6 nM (40 Ci/mmol, American Radiolabeled chemicals Inc, Cat #ART 0287A) was then immediately added to the wells. The plates were then incubated for 20 min with gentle shaking and the reaction was stopped by aspiration of the mixture and washing (three times) with ice-cold UB. The cells were lysed by the addition of scintillation liquid, shaken 3 hours and the radioactivity in the cells was estimated using a microplates scintillation counter (TopCount NXT, Packard).

In general, inhibition in vivo refers to the percentage by which the read-out fell short of the control. A word on the IC50: it is the concentration at which inhibition is half-maximal. In the case of `Cc1ncc(-c2ccc3c(c2)N(c2ccc4c(c2)N(C)C(=O)CO4)C(=O)C3(C)C)cn1` [Example 47, 6-(3,3-Dimethyl-6-(2-methylpyrimidin-5-yl)-2-oxoindolin-1-yl)-4-methyl-2H-benzo[b][1,4]oxazin-3(4H)-one], the inhibition in vivo at 30 mg/kg in experiment [1] came out at 93.8%. Further, half-maximal inhibition in experiment [2] (IC50) was put at 14.2 nM.
